Laboratory results as given in patent publication US20230312646A1, “ANTIBACTERIAL PEPTIDES” (priority 2020, published 2023).
Read-outs that look alike come from different tables or passages of the source. Numbered stars: 1 amine (or outer) side, 2 acyl side, 3 side chain; on linkers, the order of the positions; unused ones are H or OH. Square brackets hold non-standard residues; d marks the D form. Peptide text beside a SMILES is read from it. * marks the point of attachment. Acryloyl(3-(3-pyridyl),E) = O=C(/C=C/c1cccnc1)*; Phe(3,4-Cl2) = N[C@@H](Cc1ccc(Cl)c(Cl)c1)C(=O)O; Oic = O=C(O)[C@@H]1C[C@@H]2CCCC[C@@H]2N1; X2 = O=C(CN(Cc1ccccn1)[*:1])[*:2]; X7 = C[N+](C)=C(NCC(=O)*)N1CCOCC1; X4 = O=C([O-])[C@H](Cc1ccccc1)N*; Cha = N[C@@H](CC1CCCCC1)C(=O)O; NMeD = CN[C@@H](CC(=O)O)C(=O)O; NHPhenethyl = c1ccc(CCN*)cc1

Assays:
[1] = target: T1, Escherichia coli SC (^EcSC) (Escherichia coli, UniProt P0A988); experiment: biochemical; format: binding
T1 construct: His tag (inferred from the pET15b vector and Ni-NTA purification) (N); made in house; host or cells: E. coli
T1 sequence (P0A988 whole entry): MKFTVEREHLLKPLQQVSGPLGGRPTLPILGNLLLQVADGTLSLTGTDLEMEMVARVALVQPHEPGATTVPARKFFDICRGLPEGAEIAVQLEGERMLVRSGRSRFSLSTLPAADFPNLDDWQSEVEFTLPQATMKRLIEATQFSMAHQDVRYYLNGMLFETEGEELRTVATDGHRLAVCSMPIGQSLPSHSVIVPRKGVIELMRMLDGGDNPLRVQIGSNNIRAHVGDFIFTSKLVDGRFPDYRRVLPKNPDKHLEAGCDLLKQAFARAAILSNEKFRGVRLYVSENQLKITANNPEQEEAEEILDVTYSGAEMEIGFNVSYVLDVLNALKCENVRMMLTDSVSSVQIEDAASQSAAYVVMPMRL
Description: The procedure has been described previously (Wolff, P.; Oliéric, V.; Briand, J. P.; Chaloin, O.; Dejaegere, A.; Dumas, P.; Ennifar, E.; Guichard, G.; Wagner, J.; Burnouf, D. Y., Structure-Based Design of Short Peptide Ligands Binding onto the E. coli Processivity Ring. J. Med. Chem. 2011, 54 (13), 4627-4637). Briefly, E.coli cells were transformed with plasmids pET15b containing the dnaN gene from E. coli and were grown in LB at 37° C. to OD 0.5, then induced by IPTG (0.1 mM) at 28° C. overnight. dnaN proteins fractions were first enriched on a Ni-NTA column, eluted with a histidine step (300 mM) and further purified on a Source Q column in buffer containing 20 mM Tris HCI pH 7.5, 0.5 mM EDTA and 10% (v/v) glycerol, using a gradient from 0 to 0.5 M NaCl. After a final ultracentrifugation (45 K, 1 h, 20° C.), soluble proteins were concentrated on a Centricon 30 K (Millipore) in the same buffer and stored at 4° C. in 2 M ammonium sulfate. Buffer exchange was performed on Centrikon 10 K at 4° C. before use and protein quality was assessed by DLS.
(§1) ITC experiments were performed using an iTC200 or a PEAQ-ITC instrument (Microcal Malvern Panalytical). Peptides (300 or 600 µM) were titrated at 25° C. by sequential injections (usually 2 µl each) into an SC solution (30 or 60 µM). Data were corrected for heat of injection by subtracting the signal of the titration of peptides into proteiN-free buffer solution (Hepes 10 mM pH 7.4, NaCl 0.15 M, EDTA 3 mM). Each titration was performed at least twice. Analyses of experimental data were performed following a classical treatment with the AFFINImeter software (https://www.affinimeter.com; S4S, Santiago de Compostela, Spain). In addition, kinetic information was obtained in some cases with kinITC as implemented in the software AFFINImeter.
All newly synthesized peptides were tested for their interaction with ^EcSC by ITC at 25° C. As a general rule, all thermodynamic profiles reveal an exothermic interaction, and a non-favorable entropic component. The resulting negative Gibb’s free energies characterize a spontaneous interaction. The analysis of raw data by the Affinimeter® software also gave access to kinetics rate constant of the interaction.

[2] = target: T2, clamps from Pseudomonas aeruginosa (^PaSC) (Pseudomonas aeruginosa, UniProt Q9I7C4); experiment: ITC of peptides with P. aeruginosa clamp; format: binding
T2 construct: made in house
T2 sequence (Q9I7C4 whole entry): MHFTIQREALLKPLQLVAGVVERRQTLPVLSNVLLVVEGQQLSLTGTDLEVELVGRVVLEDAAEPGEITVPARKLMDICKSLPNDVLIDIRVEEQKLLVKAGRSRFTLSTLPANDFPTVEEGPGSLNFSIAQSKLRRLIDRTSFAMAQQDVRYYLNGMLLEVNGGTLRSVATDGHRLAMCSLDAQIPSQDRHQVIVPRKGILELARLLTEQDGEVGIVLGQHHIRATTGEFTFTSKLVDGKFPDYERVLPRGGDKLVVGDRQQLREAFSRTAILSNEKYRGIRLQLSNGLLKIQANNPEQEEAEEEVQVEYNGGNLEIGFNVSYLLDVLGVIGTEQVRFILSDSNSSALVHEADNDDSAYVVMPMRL
Description: as §1
Protein quality was assessed by DLS. The purification of clamps from other bacteria used the same procedure.
The bacterial sliding clamps present a highly conserved binding site among bacterial species. […] All these species belong to the ESKAPE group and are in the first priority bacteria list established by the World Health Organization for which new antibiotics are urgently needed.

[3] = Kd (nM), ITC at 298.15 K (25° C.)

Structure (SMILES)	ΔG (kcal/mol) ([1]; ITC at 298.15 K (25° C.))	Kd [1, 3] [nM]	kon ([1]; read-out: kon (M^-1.s^-1)) [M⁻¹ s⁻¹]	kon ([1]; read-out: kon (M^-1 s^-1)) [M⁻¹ s⁻¹]	other results
CC(=O)N[C@@H](CCC(N)=O)C(=O)N[C@@H](CC1CCCCC1)C(=O)N[C@@H](CC(=O)O)C(=O)N[C@@H](CC(C)C)C(=O)N[C@@H](Cc1ccccc1)C(N)=O [P26] (Ac-Q[Cha]DLF-NH2)	-9.0 (± 0.1) kcal/mol	268	33000	–	–
CC(C)C[C@H](NC(=O)[C@H](CC(=O)O)N(C)C(=O)[C@H](CC1CCCCC1)NC(=O)[C@H](CCC(N)=O)NC(=O)/C=C/c1cccnc1)C(=O)N1CCC[C@H]1C(=O)N[C@@H](Cc1ccccc1)C(=O)O [P46] ({Acryloyl(3-(3-pyridyl),E)}-Q[Cha][NMeD]LPF-OH)	–	36	–	140000	ΔG (kcal mol^-1) ([1]; ITC at 25° C.): -10.2 (± 0.1) kcal mol^-1
CC(=O)N[C@@H](CCCNC(=N)N)C(=O)N[C@@H](CCC(N)=O)C(=O)N[C@@H](CC1CCCCC1)C(=O)N(C)[C@@H](CC(=O)O)C(=O)N[C@@H](CC(C)C)C(=O)N[C@@H](Cc1ccc(Cl)c(Cl)c1)C(=O)O [P36] (Ac-RQ[Cha][NMeD]L[Phe(3,4-Cl2)]-OH)	–	278	–	76000	–
CC(=O)N[C@@H](CCC(N)=O)C(=O)N[C@@H](CC1CCCCC1)C(=O)N[C@@H](CC(=O)O)C(=O)N[C@@H](CC(C)C)C(=O)NCCc1ccccc1 [P23] (Ac-Q[Cha]DL-NHPhenethyl)	-8.2 (± 0.05) kcal/mol	922	19000	–	–
CC(=O)N[C@@H](CCC(N)=O)C(=O)N[C@@H](CC1CCCCC1)C(=O)N[C@@H](CC(=O)O)C(=O)N[C@@H](CC(C)C)C(=O)N1CCC[C@H]1C(=O)N[C@@H](CC(C)C)C(=O)O [P32] (Ac-Q[Cha]DLPL-OH)	-9.2 (± 0.2) kcal/mol	182	57000	–	fold lower Kd / affinity enhancement in comparison to peptide P27 ([1]; compared to P27): 4 fold
CC(C)C[C@H](NC(=O)[C@H](CC(=O)O)N(C)C(=O)[C@H](CC1CCCCC1)NC(=O)[C@H](CCC(N)=O)NC(=O)/C=C/c1cccnc1)C(=O)N[C@@H](Cc1ccc(Cl)c(Cl)c1)C(=O)O [P38] ({Acryloyl(3-(3-pyridyl),E)}-Q[Cha][NMeD]L[Phe(3,4-Cl2)]-OH)	–	46	–	110000	Kd ([2]; ITC at 25° C., means of three independant experiments, standard deviations in brackets, read-out: affinities (Kd in nM), P. aeruginosa): 120 nM; Kd ([2]; range over ^PaSC and ^AbSC, read-out: affinity for these clamps (^PaSC and ^AbSC)): 120 to 170 nM; Kd ([1]; affinities (Kd in nM), E.coli, ITC at 25° C., means of three independant experiments, standard deviations in brackets): 45 nM
CC(C)C[C@H](NC(=O)[C@H](CC(=O)O)NC(=O)[C@H](CC1CCCCC1)NC(=O)[C@H](CCC(N)=O)NC(=O)CNC(N1CCOCC1)=[N+](C)C)C(=O)N[C@@H](Cc1ccccc1)C(=O)[O-] [P14] (X7-Q[Cha]DL-X4)	-9.0 (± 0.1) kcal/mol	276	34000	–	–
CC(C)C[C@H](NC(=O)[C@H](CC(=O)O)N(C)C(=O)[C@H](CC1CCCCC1)NC(=O)[C@H](CCC(N)=O)NC(=O)/C=C/c1cccnc1)C(=O)N1[C@H](C(=O)N[C@@H](Cc2ccccc2)C(=O)O)C[C@@H]2CCCC[C@@H]21 [P49] ({Acryloyl(3-(3-pyridyl),E)}-Q[Cha][NMeD]L[Oic]F-OH)	–	118	–	47000	ΔG (kcal mol^-1) ([1]; ITC at 25° C.): -9.5 (± 0.1) kcal mol^-1
CC(=O)N[C@@H](CCC(N)=O)C(=O)N[C@@H](CC1CCCCC1)C(=O)N[C@@H](CC(=O)O)C(=O)N[C@@H](CC(C)C)C(=O)N1[C@H](C(=O)N[C@@H](Cc2ccccc2)C(=O)O)C[C@@H]2CCCC[C@@H]21 [P48] (Ac-Q[Cha]DL[Oic]F-OH)	–	120	–	55000	ΔG (kcal mol^-1) ([1]; ITC at 25° C.): -9.5 (± 0.3) kcal mol^-1
CC(C)C[C@H](NC(=O)[C@H](CC(=O)O)NC(=O)[C@H](CC1CCCCC1)NC(=O)[C@H](CCC(N)=O)NC(=O)CNCc1ccccn1)C(=O)N[C@@H](Cc1ccccc1)C(=O)O [P8] (H-[X2]Q[Cha]DLF-OH)	–	172	34000	–	–
CC(=O)N[C@@H](CCC(N)=O)C(=O)N[C@@H](CC1CCCCC1)C(=O)N(C)[C@@H](CC(=O)O)C(=O)N[C@@H](CC(C)C)C(=O)N[C@@H](Cc1ccc(Cl)c(Cl)c1)C(=O)O [P35] (Ac-Q[Cha][NMeD]L[Phe(3,4-Cl2)]-OH)	–	41	–	270000	Kd ([2]; affinities (Kd in nM), P. aeruginosa, ITC at 25° C., means of three independant experiments, standard deviations in brackets): 140 nM
